Measured values as given in patent publication EP0049968A1, “Pharmaceutical compositions” (priority 1980, dated 1982).
Where two headings read alike, the source gives them in different places.

Test system: highly resistant E.coli strains (producing a plasmid mediated β-lactamase)
Assay: MIC of compound (i) alone and in combination with compound (iii), E. coli strains
Format: cell-based
Conditions: for MIC: Escherichia coli, compound (i) alone

SMILES: CC1(C)S[C@@H]2[C@H](NC(=O)[C@H](NC(=O)Nc3cnc(Nc4ccc(S(N)(=O)=O)cc4)nc3O)c3ccc(O)cc3)C(=O)N2[C@H]1C(=O)O [compound (i)]
- MIC (read-out: MIC µg/ml compound (i) alone, Geometric mean (± 95% confidence limits), geometric mean of 11 E. coli strains): > 160 µg/mL
- MIC (read-out: MIC µg/ml compound (i) alone, strain E96): > 160 µg/mL
- MIC (read-out: MIC µg/ml compound (i) alone, strain E110): > 160 µg/mL
- MIC (read-out: MIC µg/ml compound (i) alone, strain E121): > 161 µg/mL
- MIC (read-out: MIC µg/ml compound (i) alone, strain E124): > 160 µg/mL
- MIC (read-out: MIC µg/ml compound (i) alone, strain JT4): > 160 µg/mL
- MIC (read-out: MIC µg/ml compound (i) alone, strain JT9): > 160 µg/mL
- MIC (read-out: MIC µg/ml compound (i) alone, strain JT39): 160 µg/mL
- MIC (read-out: MIC µg/ml compound (i) alone, strain JT68): > 160 µg/mL
- MIC (read-out: MIC µg/ml compound (i) alone, strain P9): > 160 µg/mL
- MIC (read-out: MIC µg/ml compound (i) alone, strain P19): > 160 µg/mL
- MIC (read-out: MIC µg/ml compound (i) alone, strain SA15): > 160 µg/mL
- MIC µg/ml compound (i) compound (iii) (µg/ml) 1, Geometric mean (± 95% confidence limits) (geometric mean of 11 E. coli strains, with compound (iii) 1 µg/ml): 0.80 (0.16-4.1) µg/ml
- MIC µg/ml compound (i) compound (iii) (µg/ml) 2, Geometric mean (± 95% confidence limits) (geometric mean of 11 E. coli strains, with compound (iii) 2 µg/ml): 0.59 (0.15-2.2) µg/ml
- MIC µg/ml compound (i) compound (iii) (µg/ml) 5, Geometric mean (± 95% confidence limits) (geometric mean of 11 E. coli strains, with compound (iii) 5 µg/ml): 0.19 (0.07-0.53) µg/ml
- MIC µg/ml compound (i) compound (iii) (µg/ml) 10, Geometric mean (± 95% confidence limits) (geometric mean of 11 E. coli strains, with compound (iii) 10 µg/ml): 0.08 (0.02-0.30) µg/ml
- MIC µg/ml compound (i) compound (iii) (µg/ml) 1 (strain E96, with compound (iii) 1 µg/ml): 0.62 µg/mL
- MIC µg/ml compound (i) compound (iii) (µg/ml) 2 (strain E96, with compound (iii) 2 µg/ml): 0.62 µg/mL
- MIC µg/ml compound (i) compound (iii) (µg/ml) 5 (strain E96, with compound (iii) 5 µg/ml): 0.31 µg/mL
- MIC µg/ml compound (i) compound (iii) (µg/ml) 10 (strain E96, with compound (iii) 10 µg/ml): 0.31 µg/mL
- MIC µg/ml compound (i) compound (iii) (µg/ml) 1 (strain E110, with compound (iii) 1 µg/ml): 0.16 µg/mL
- MIC µg/ml compound (i) compound (iii) (µg/ml) 2 (strain E110, with compound (iii) 2 µg/ml): 0.16 µg/mL
- MIC µg/ml compound (i) compound (iii) (µg/ml) 5 (strain E110, with compound (iii) 5 µg/ml): 0.08 µg/mL
- MIC µg/ml compound (i) compound (iii) (µg/ml) 10 (strain E110, with compound (iii) 10 µg/ml): 0.02 µg/mL
- MIC µg/ml compound (i) compound (iii) (µg/ml) 1 (strain E121, with compound (iii) 1 µg/ml): 0.62 µg/mL
- MIC µg/ml compound (i) compound (iii) (µg/ml) 2 (strain E121, with compound (iii) 2 µg/ml): 0.31 µg/mL
- MIC µg/ml compound (i) compound (iii) (µg/ml) 5 (strain E121, with compound (iii) 5 µg/ml): 0.16 µg/mL
- MIC µg/ml compound (i) compound (iii) (µg/ml) 10 (strain E121, with compound (iii) 10 µg/ml): 0.08 µg/mL
- MIC µg/ml compound (i) compound (iii) (µg/ml) 1 (strain E124, with compound (iii) 1 µg/ml): 1.25 µg/mL
- MIC µg/ml compound (i) compound (iii) (µg/ml) 2 (strain E124, with compound (iii) 2 µg/ml): 0.62 µg/mL
- MIC µg/ml compound (i) compound (iii) (µg/ml) 5 (strain E124, with compound (iii) 5 µg/ml): 0.31 µg/mL
- MIC µg/ml compound (i) compound (iii) (µg/ml) 10 (strain E124, with compound (iii) 10 µg/ml): 0.16 µg/mL
- MIC µg/ml compound (i) compound (iii) (µg/ml) 1 (strain JT4, with compound (iii) 1 µg/ml): 40 µg/mL
- MIC µg/ml compound (i) compound (iii) (µg/ml) 2 (strain JT4, with compound (iii) 2 µg/ml): 20 µg/mL
- MIC µg/ml compound (i) compound (iii) (µg/ml) 5 (strain JT4, with compound (iii) 5 µg/ml): 2.5 µg/mL
- MIC µg/ml compound (i) compound (iii) (µg/ml) 10 (strain JT4, with compound (iii) 10 µg/ml): 1.25 µg/mL
- MIC µg/ml compound (i) compound (iii) (µg/ml) 1 (strain JT9, with compound (iii) 1 µg/ml): 1.25 µg/mL
- MIC µg/ml compound (i) compound (iii) (µg/ml) 2 (strain JT9, with compound (iii) 2 µg/ml): 0.62 µg/mL
- MIC µg/ml compound (i) compound (iii) (µg/ml) 5 (strain JT9, with compound (iii) 5 µg/ml): 0.08 µg/mL
- MIC µg/ml compound (i) compound (iii) (µg/ml) 10 (strain JT9, with compound (iii) 10 µg/ml): 0.08 µg/mL
- MIC µg/ml compound (i) compound (iii) (µg/ml) 1 (strain JT39, with compound (iii) 1 µg/ml): 0.16 µg/mL
- MIC µg/ml compound (i) compound (iii) (µg/ml) 2 (strain JT39, with compound (iii) 2 µg/ml): 0.16 µg/mL
- MIC µg/ml compound (i) compound (iii) (µg/ml) 5 (strain JT39, with compound (iii) 5 µg/ml): 0.08 µg/mL
- MIC µg/ml compound (i) compound (iii) (µg/ml) 10 (strain JT39, with compound (iii) 10 µg/ml): 0.02 µg/mL
- MIC µg/ml compound (i) compound (iii) (µg/ml) 1 (strain JT68, with compound (iii) 1 µg/ml): 0.16 µg/mL
- MIC µg/ml compound (i) compound (iii) (µg/ml) 2 (strain JT68, with compound (iii) 2 µg/ml): 0.31 µg/mL
- MIC µg/ml compound (i) compound (iii) (µg/ml) 5 (strain JT68, with compound (iii) 5 µg/ml): 0.16 µg/mL
- MIC µg/ml compound (i) compound (iii) (µg/ml) 10 (strain JT68, with compound (iii) 10 µg/ml): 0.08 µg/mL
- MIC µg/ml compound (i) compound (iii) (µg/ml) 1 (strain P9, with compound (iii) 1 µg/ml): 1.25 µg/mL
- MIC µg/ml compound (i) compound (iii) (µg/ml) 2 (strain P9, with compound (iii) 2 µg/ml): 0.62 µg/mL
